For data set [1] the following is noted: weakly basic conditions; cited from earlier work.
The conditions of data set [2]: literature; cited from earlier work.
Data set [3] has as its system SIV 22803 (AZT-resistant). Put plainly: AZT-resistant SIV propagation (syncytia formation), SIV 22803. It is filed as cell-based. Particulars: INO2 BA 0, BSO 0.05 mM. On the procedure:
(§1) CEM × 174 (3 × 10^5 /ml) were infected with equal doses o
(§2) SIVmac239 or virus isolates from SIVmac239infected rhesus macaques (MMU
(§3) 23686, 22803). Three days postinfection, INO2 BA concentrations
(§4) ranging from 0 to 300 μM with or without BSO were added, and incubated
(§5) for an additional 3 days. Cell cultures were then examined for syncytia
(§6) formation. The number of syncytia in cell cultures was counted in
(§7) arbitration fields under 40× magnification and scored as follows: […]

The subject of data set [4] is SIVmac239 or virus isolates in CEM ×174 cells. Briefly: SIV replication in CEM ×174 cells, SIV p27 core antigen assay. It is filed as cell-based. An excerpt:
Infected cell cultures described in FIG. 4 were used for determination of supernatant virus titers by SIV p27 core antigen assay as described in Example XIV. The ordinate represents p27 ELISA performed on day 10 of the assay and the abscissa represents the concentration of INO2 BA alone (rear rows in panels A, B and C) and in combination with BSO (front rows in panels A, B and C).
CEM ×174 cells (3×10^5 /ml) were infected with 3.75 TCID50 /ml (50% tissue culture infectious dosage per ml of cell suspension) stock solution of SIVmac239 or virus isolates from SIVmac239-infected rhesus macaques on day 0. Uniform infection of cells was ensured by the infection of one cell population only per virus preparation. Three days post-infection, the cells were distributed (500 μl/well) into individual wells of a 24-well plate. Fresh medium containing INO2 BA concentrations ranging from 0 to 300 μM and/or BSO concentrations ranging from 0 to 0.25 mM were added to establish final 1-ml reaction volumes, and the cultures were further incubated for 4 days. The wells were then replenished with fresh CEM ×174 cells (3×10^5 /ml), INO2 BA and/or BSO were re-added at the same concentrations as in the original incubates, and incubation was continued for an additional 3 days. This procedure intends to mimic conditions of in vivo chemotherapy. Cell viability and virus titers in the supernatant were determined on day 10 (3 days after the addition of new cells) by the tetrazolium (MTT) method of Hansen et al., J. Immunol. Methods 119:208-210 (1982) and by the SIV p27 and reverse transcriptase (RT) assays described by Chuang et al., FEBS Lett. 326:140-144 (1993), respectively.
SIVmac p27 core antigen levels were determined by an enzyme immunoassay provided by Coulter Corp. (Hialeah, Fla.). The assay was performed according to the manufacturer's specifications.

The test system of data set [5] is cellular GSH. Briefly: cellular GSH levels under BSO. Type of data set: cell-based. Particulars: at the concentrations applied. On the procedure: The role of cellular GSH was determined by the simultaneous addition of INO2 BA and BSO (an inhibitor of GSH biosynthesis, Meister, Pharmacology and Therapeutics 51:155-194 (1991), which at the concentrations applied diminished cellular GSH levels below 5-10% of controls.) The results are tabulated below in Table 3.

Data set [6] has as its system L-1210 cells. Put plainly: time course of cell killing alone and with BSO, L-1210. Type of data set: cell-based, murine. As to conditions: L-1210, 2-3 day period; 1 mM BSO. The method, then:
(§8) Molt 4-cells were seeded at a density of 0.05×10^6 cell/ml in the recommended growth medium in the absence or the presence of drugs as indicated. Cells were incubated at 37° C. in a 5% CO2 atmosphere and proliferation was monitored in 14 hr. by cell counting in a hemacytometer. .smallcircle., untreated control; .circle-solid., treated with 4 μM 4-iodo-3-nitrobenzoic acid; .gradient., treated with 1 mM BSO; .tangle-soliddn., treated with 4 μM-iodo-3-nitrobenzoic acid and 1 mM BSO; .quadrature., treated with 4 μM 4-INO2 BA; .box-solid., treated with 1 mM BSO; .gradient., treated with 4 μM INO2 BA and 1 mM BSO. L-1210 cells were seeded at a density of 0.05×10^6 cells/ml either from untreated stock suspensions or from 24-hr. pretreated (0.2×10^6 cells/ml) suspensions. .smallcircle., untreated control; .circle-solid., treated with […] NOBA; .gradient., treated with 1 mM BSO; .tangle-soliddn., 24-hr pretreatment with 1 mM BSO then treated with 4 μM NOBA.
(§9) A time course of the cell killings by 4-iodo-3-nitrobenzoic acid, INO2 BA and NOBA, each alone and in combination with BSO was obtained. Molt-4 cells were seeded at a density of 0.05×10^6 cells/ml in the recommended growth medium in the absence or presence of drugs as indicated in FIG. 3. Drugs were added to the wells immediately after seeding from 10-40 mM stock solution in DMSO. BSO was added from a 100 mM aqueous stock solution. Cells were incubated at 37° C. in a 5% CO2 atmosphere and proliferation was monitored in 14 hours by cell counting in a hemacytometer.

In data set [7] the test system is Molt-4 cells. Briefly: time course of cell killing alone and with BSO, Molt-4. Type of data set: cell-based. Particulars: Molt-4, 2-3 day period; 4 μM drug, 1 mM BSO. The method, then:
as §8, §9

Data set [8] deals with SIV 23686 (AZT-resistant). Put plainly: AZT-resistant SIV propagation (syncytia formation), SIV 23686. As to conditions: INO2 BA 0, BSO 0.01 mM. Type of data set: cell-based. On the procedure:
as §1, §2, §3, §4, §5, §6, §7

In data set [9] the test system is tumor cells. Particulars: Hakam et al.; cited from earlier work.
Data set [10] concerns MDA 468. Briefly: effect of nitroso- and nitro-compounds in mammary cancer cells (monolayer), MDA 468. As to conditions: drug exposure 24-48 hours. It is filed as cell-based, human. The method, then: II. I50 and LD100 Values for Nitroso- and Nitro-Compounds in (A) Mammary Cancer Cells (monolayer cultures) and in (B) L-1210 Murine Leukemia Cells (suspension culture).
Seeding was at 2×10^4 or 0.8×10^4 cells/cm^2, drugs were added 6-18 hours after seeding, and drug exposure time was 24-48 hours.

Data set [11] relates to pADPRT. Briefly: pADPRT enzyme inactivation. Type of data set: biochemical. Particulars: 2 hr at 25° C. The method, then: FIG. 1 is a graph comparing the inactivation of pADPRT by NOBA and INOBA. pADPRT inactivation was performed in 20-μl volumes of buffer containing 50 mM Hepes (pH 7.4), 100 mM KCl, 0.5 mM EDTA, pADPRT (0.4 μg/μl) and different concentrations of inactivators. Inactivators were serially diluted in the above buffer from a 20 mM stock solution in DMF. The DMF concentration (2.5%) was kept constant in the inactivation mixes. After 2 hr. at 25° C., aliquots (3 μl) were removed for assay of enzyme activity in a volume of assay mix (200 μl) in which the inactivators were dilute enough not to act as inhibitors. The assay mix consisted of 100 mM Tris (pH 7.7), 14 mM 2-mercaptoethanol, 0.1 mM [^32 P]-NAD^+, 0.2 mg/ml coDNA and 0.1 mg/ml histones. The incorporated ^32 P, proportional to enzyme activity, is plotted as percent of the untreated sample.
NOBA and INOBA were assayed for their respective effects on pADPRT enzyme inactivation and pADPRT zinc content according to the methods described in Buki et al., FEBS Lett. 290:181-185 (1991) at pH 7.0. pADPRT inactivation was performed in 20-μl volumes of buffer containing 50 mM Hepes (pH 7.4), 100 mM KCl, 0.5 mM EDTA, pADPRT (0.4 μg/μl) and different concentrations of inactivators. Inactivators were serially diluted in the above buffer from a 20 mM stock solution in DMF. The DMF concentration (2.5%) was kept constant in the inactivation mixes. […]

For data set [12], the system named is pADPRT. Put plainly: pADPRT zinc content / zinc ejection. It is filed as biochemical. Particulars: 25° C. On the procedure:
FIG. 2A is a graph comparing the effects of NOBA and INOBA on the enzyme activity and zinc content of pADPRT. Inactivation was performed as described in Example III. In these experiments ^65 Zn^2+ -labeled pADPRT was used. The Zn^2+ content of pADPRT (upper panel) was determined as follows: two parallels of aliquots (4 μl) were pipetted into 500 μl of ice-cold washing solution (50 mM Tris, pH 7.7, 10 mM 2-mercaptoethanol and 0.5 mM EDTA) then filtered onto GF/C disks presoaked in washing solution (cold), quickly washed 4 times with 1 ml of ice-cold washing solution, dried, and the radioactivity determined. The protein-bound ^65 Zn^2+ is shown as percent of the untreated sample. Enzyme assays (lower panel) were performed as in FIG. 1.
For the release of Zn^2+ from transblotted pADPRT, the enzyme (3 μg per lane) was separated on SDS-PAGE, transblotted onto a nitrocellulose membrane, and renatured in the presence of ^65 ZnCl2. […] After incubation, 1 ml of the supernatant was counted for radioactivity, and the strips were washed 3 times with 2 ml of 50 mM Tris-HCl pH 7.4), 0.5 mM EDTA and 10 Mm 2-mercaptoethanol, and then dried and exposed to X-ray film. The intensity of the autoradiographic spots was quantitated by a scanner. […]

The nature of data set [13]: reduction by GSH and ascorbate in in vitro chemical tests. Type of data set: physicochemical.

“Also recorded” adds a separate entry of the source.

Results on five molecules are retold here after patent publication US5877185A, “Synergistic compositions useful as anti-tumor agents” (priority 1995, dated 1999).

For the molecule `NC(=O)c1cccc(N(O)S(=O)(=O)CC(N)C(=O)O)c1` (centres unmarked), the “release of C-nitroso molecule” value in [1] is recorded as “releases the C-nitroso molecule at weakly basic conditions”.

As for `CCCCS(=N)(=O)CCC(N)C(=O)O` (racemic) [BSO, DL-buthionine sulfoximine, reference compound], the “toxicity of BSO” value in [2] is listed as “very low; also recorded: non-toxicity”. The Syncytia entry in [3] is given as “++++ (over 30)”; in data set [8], “+++ (20-30)”. Besides, the “effect on p27 formation / SIV replication” value in data set [4] (BSO alone, FIG. 5D) is “no effect”. Moreover, the “cellular GSH level” value in data set [5] is on record as 5-10 % of controls. The “effect on cell proliferation” value in data set [6] and in data set [7] was “no significant effect” each time.

With `Nc1ccc2oc(=O)ccc2c1` [6-amino-1,2-benzopyrone], the anti-tumor effects result in data set [9] is reported as “anti-tumor effects”.

In data set [10], `O=c1ccc2c(I)c([N+](=O)[O-])ccc2o1` [INO2 BP, 5-iodo-6-nitro-1,2-benzopyrone] gave an I50 of 260 Namomoles/cm × 10^4 cells.

As to `NC(=O)c1ccc(I)c(N=O)c1` [INOBA, 4-Iodo-3-Nitrosobenzamide], the “inactivation of pADPRT, NOBA vs INOBA” value in data set [11] is given as “more effective inactivator of pADPRT”. The “time in which zinc ejection was complete” value in data set [12] was at most 2 h. Further, in [4] (with BSO, CEM ×174 cells), the “effect of GSH depletion by BSO on inhibitory effect on SIV replication” value was “synergistically enhances”. The “reduction to the corresponding hydroxyl amines” value in data set [13] is given as “rapidly reduced”.
